Values of other authors in patent US20130078290A1, “Gastroretentive Dosage Forms Of GABA Analogs” (Rubicon Research Private Limited, priority 2010, published 2013).

Key:
[1] = in water and in acidic and basic aqueous solutions
[2] = for Elimination half-life: in vivo

Row | SMILES | Solubility [1] | Oral bioavailability ([2]; dose in range of 300-400 mg) | Elimination half-life [2]
1 | NCC1(CC(=O)O)CCCCC1 [gabapentin, 1-(Aminomethyl)cyclohexaneacetic acid] | freely soluble | approximately 60% | 5 to 7 h
2 | CC(C)CC(CN)CC(=O)O (centres unmarked) [pregabalin, 5-methyl-3-aminomethyl-hexanoic acid] | freely soluble | – | about 6.3 hours
